Experiments:
[1] = system: winter wheat; experiment: Test E winter wheat; format: in vivo, Triticum aestivum; conditions: Postemergence, 0 to 100 scale
Method in brief: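 Postemergence: 60:40 sandy loam/greenhouse potting mix, 1- to 4-leaf stage. Formulation: solvent plus surfactant. Assessment: visual comparison with untreated controls at ~21–28 days.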

[2] = system: winter wheat; experiment: Test E winter wheat; format: in vivo, Triticum aestivum; conditions: Preemergence; for Wheat (winter) plant response rating (0 to 100 scale): Rate 250 g/ha
[3] = system: blackgrass; experiment: Test E blackgrass; format: in vivo, Alopecurus myosuroides; conditions: Preemergence; for Blackgrass plant response rating (0 to 100 scale): Rate 250 g/ha
[4] = system: green foxtail; experiment: Test E green foxtail; format: in vivo, Setaria viridis; conditions: Preemergence; for Green foxtail plant response rating (0 to 100 scale): Rate 250 g/ha
[5] = system: velvetleaf; experiment: Test B pre/postemergence velvetleaf; format: in vivo, Abutilon theophrasti
Method in brief: (§1)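 Herbicidal effect was estimated by eye on a ten-point control scale after plants spent twelve to sixteen days in a greenhouse following soil or foliar treatment. Foliar sprays targeted plants at one to four leaves; all doses were formulated in a non-phytotoxic solvent with surfactant.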

[6] = system: wild oat; experiment: Test B pre/postemergence wild oat; format: in vivo, Avena fatua
Method in brief: as §1

[7] = system: bedstraw; experiment: Test B pre/postemergence bedstraw; format: in vivo, Galium aparine; conditions: for Bedstraw plant response rating (0 to 10 scale): 0 is no effect
Method in brief: as §1

[8] = system: Italian ryegrass; experiment: Test E Italian ryegrass; format: in vivo, Lolium multiflorum; conditions: Preemergence; for I. Ryegrass plant response rating (0 to 100 scale): Rate 250 g/ha; for Plant response rating, I. Ryegrass: 0 to 100 scale where 0 is no effect and 100 is complete control
[9] = system: morningglory; experiment: Test B pre/postemergence morningglory; format: in vivo, Ipomoea hederacea; conditions: for Morningglory plant response rating (0 to 10 scale): 0 is no effect
Method in brief: as §1

[10] = system: winter barley; experiment: Test E winter barley; format: in vivo, Hordeum vulgare; conditions: Preemergence; for Barley (winter) plant response rating (0 to 100 scale): Rate 250 g/ha
[11] = system: wild oat; experiment: Test E wild oat; format: in vivo, Avena fatua; conditions: Preemergence; for Wild oat plant response rating (0 to 100 scale): Rate 250 g/ha
[12] = Rate 1000 g/ha, 0 is no effect and 100 is complete control
[13] = Rate 500 g/ha, 0 is no effect, 100 is complete control
[14] = Rate 500 g/ha, 0 to 100 scale where 0 is no effect and 100 is complete control
[15] = Rate 1000 g/ha, 0 to 100 scale where 0 is no effect and 100 is complete control
[16] = Preemergence, Rate 62 g/ha, scale of 0 to 10 where 0 is no effect and 10 is complete control
[17] = Preemergence, Rate 125 g/ha, 0 is no effect, 10 is complete control
[18] = Preemergence, Rate 250 g/ha, scale 0 to 10, 0 is no effect, 10 is complete control
[19] = Preemergence, Rate 500 g/ha, scale 0 to 10 (0 no effect, 10 complete control)
[20] = Rate 250 g/ha, Postemergence, scale 0 to 10, 0 is no effect, 10 is complete control
[21] = Rate 500 g/ha, Postemergence, scale 0 to 10
[22] = Postemergence, Rate 125 g/ha, scale of 0 to 10 where 0 is no effect and 10 is complete control
[23] = Preemergence, Rate 125 g/ha, 10 is complete control
[24] = Rate 62 g/ha, Postemergence, scale of 0 to 10 where 0 is no effect and 10 is complete control
[25] = Preemergence, Rate 500 g/ha, scale of 0 to 10 where 0 is no effect and 10 is complete control
[26] = Rate 125 g/ha, Postemergence, scale 0 to 10
[27] = Rate 125 g/ha, 0 to 100 scale (0 no effect, 100 complete control)
[28] = Preemergence, Rate 250 g/ha, scale of 0 to 10 where 0 is no effect and 10 is complete control
[29] = Rate 125 g/ha, Preemergence, scale of 0 to 10 where 0 is no effect and 10 is complete control

## CC(C)N(C(=O)n1oc(=O)n([C@@H](C)c2ccccc2)c1=O)c1ccc(Cl)cc1 [Compound 174]
[1]; [12]
  Plant response rating, Wheat (winter): 50
[1]; [13]
  Plant response rating, Wheat (winter): 40
[2]
  Wheat (winter) plant response rating (0 to 100 scale): 60
[2]; [14]
  Plant response rating, Wheat (winter): 50
[2]; [15]
  Plant response rating, Wheat (winter): 40
[3]
  Blackgrass plant response rating (0 to 100 scale): 30
[3]; [14]
  Plant response rating, Blackgrass: 50
[3]; [15]
  Plant response rating, Blackgrass: 55
[4]
  Green foxtail plant response rating (0 to 100 scale): 30
[4]; [14]
  Plant response rating, Green foxtail: 50
[4]; [15]
  Plant response rating, Green foxtail: 85
[5]; [16]
  Velvetleaf plant response rating: 0
[5]; [17]
  Velvetleaf plant response rating (0 to 10 scale): 0
[5]; [18]
  Velvetleaf plant response rating: 0
[5]; [19]
  Velvetleaf plant response rating: 0
[5]; [20]
  Plant response rating, Velvetleaf: 0
[5]; [21]
  Velvetleaf plant response rating: 0
[6]; [16]
  Wild oats plant response rating: 0
[6]; [17]
  Wild oats plant response rating (0 to 10 scale): 0
[6]; [18]
  Wild oats plant response rating: 0
[6]; [19]
  Wild oats plant response rating: 0
[6]; [20]
  Plant response rating, Wild oats: 0
[6]; [21]
  Wild oats plant response rating: 0
[7]; [22]
  Bedstraw plant response rating: 4
[7]; [16]
  Bedstraw plant response rating: 0
[7]; [23]
  Bedstraw plant response rating (0 to 10 scale): 0
[7]; [19]
  Bedstraw plant response rating: 3
[7]; [24]
  Bedstraw plant response rating: 0
[7]; [20]
  Plant response rating, Bedstraw: 6
[8]
  I. Ryegrass plant response rating (0 to 100 scale): 0
[8]; Rate 500 g/ha
  Plant response rating, I. Ryegrass: 20
[8]; Rate 1000 g/ha
  Plant response rating, I. Ryegrass: 40
[9]; [22]
  Morningglory plant response rating: 5
[9]; [16]
  Morningglory plant response rating: 0
[9]; [23]
  Morningglory plant response rating (0 to 10 scale): 0
[9]; [18]
  Morningglory plant response rating: 0
[9]; [19]
  Morningglory plant response rating: 0
[9]; [24]
  Morningglory plant response rating: 3
[9]; [20]
  Plant response rating, Morningglory: 5
[9]; [21]
  Morningglory plant response rating: 5
[10]
  Barley (winter) plant response rating (0 to 100 scale): 0
[10]; [14]
  Plant response rating, Barley (winter): 0
[10]; [15]
  Plant response rating, Barley (winter): 10
[11]
  Wild oat plant response rating (0 to 100 scale): 50
[11]; [14]
  Plant response rating, Wild oat: 40
[11]; [15]
  Plant response rating, Wild oat: 50

## CC(C)N(C(=O)n1oc(=O)n(-c2ccc(OC(F)(F)F)cc2)c1=O)c1ccc(F)cc1 [Compound 202]
[1]; [12]
  Plant response rating, Wheat (winter): 60
[1]; [13]
  Plant response rating, Wheat (winter): 55
[2]
  Wheat (winter) plant response rating (0 to 100 scale): 50
[2]; [14]
  Plant response rating, Wheat (winter): 40
[2]; [15]
  Plant response rating, Wheat (winter): 70
[3]
  Blackgrass plant response rating (0 to 100 scale): 30
[3]; [14]
  Plant response rating, Blackgrass: 50
[3]; [15]
  Plant response rating, Blackgrass: 30
[4]
  Green foxtail plant response rating (0 to 100 scale): 70
[4]; [14]
  Plant response rating, Green foxtail: 85
[4]; [15]
  Plant response rating, Green foxtail: 100
[5]; [16]
  Velvetleaf plant response rating: 0
[5]; [18]
  Velvetleaf plant response rating: 6
[5]; [25]
  Plant response rating, Velvetleaf: 1
[5]; [24]
  Velvetleaf plant response rating: 0
[5]; [26]
  Velvetleaf plant response rating: 0
[5]; Rate 250 g/ha, Postemergence
  Plant response rating (0 to 10; 0 is no effect, 10 is complete control), Velvetleaf: 0
[6]; [16]
  Wild oats plant response rating: 0
[6]; [18]
  Wild oats plant response rating: 0
[6]; [25]
  Plant response rating, Wild oats: 5
[6]; [24]
  Wild oats plant response rating: 0
[6]; [26]
  Wild oats plant response rating: 0
[6]; Rate 250 g/ha, Postemergence
  Plant response rating (0 to 10; 0 is no effect, 10 is complete control), Wild oats: 0
[7]; [16]
  Bedstraw plant response rating: 0
[7]; [23]
  Bedstraw plant response rating (0 to 10 scale): 0
[7]; [18]
  Bedstraw plant response rating: 6
[7]; [25]
  Plant response rating, Bedstraw: 2
[7]; [24]
  Bedstraw plant response rating: 1
[7]; [26]
  Bedstraw plant response rating: 2
[7]; Rate 250 g/ha, Postemergence
  Plant response rating (0 to 10; 0 is no effect, 10 is complete control), Bedstraw: 4
[7]; [21]
  Bedstraw plant response rating: 4
[8]
  I. Ryegrass plant response rating (0 to 100 scale): 30
[8]; Rate 500 g/ha
  Plant response rating, I. Ryegrass: 60
[8]; Rate 1000 g/ha
  Plant response rating, I. Ryegrass: 60
[9]; [16]
  Morningglory plant response rating: 0
[9]; [23]
  Morningglory plant response rating (0 to 10 scale): 0
[9]; [18]
  Morningglory plant response rating: 0
[9]; [25]
  Plant response rating, Morningglory: 1
[9]; [24]
  Morningglory plant response rating: 2
[9]; [26]
  Morningglory plant response rating: 5
[9]; Rate 250 g/ha, Postemergence
  Plant response rating (0 to 10; 0 is no effect, 10 is complete control), Morningglory: 8
[9]; [21]
  Morningglory plant response rating: 9
[10]
  Barley (winter) plant response rating (0 to 100 scale): 20
[10]; [14]
  Plant response rating, Barley (winter): 40
[10]; [15]
  Plant response rating, Barley (winter): 70
[11]
  Wild oat plant response rating (0 to 100 scale): 50
[11]; [14]
  Plant response rating, Wild oat: 60
[11]; [15]
  Plant response rating, Wild oat: 80

## CC(=O)OCCCCn1c(=O)on(C(=O)N(c2ccc(F)cc2)C(C)C)c1=O [Compound 211]
[1]; Rate 125 g/ha, 0 is no effect, 100 is complete control
  Plant response rating, Wheat (winter): 20
[1]; [13]
  Plant response rating, Wheat (winter): 40
[2]; [27]
  Plant response rating, Wheat (winter): 50
[2]
  Wheat (winter) plant response rating (0 to 100 scale): 35
[2]; [14]
  Plant response rating, Wheat (winter): 30
[3]; [27]
  Plant response rating, Blackgrass: 0
[3]
  Blackgrass plant response rating (0 to 100 scale): 0
[3]; [14]
  Plant response rating, Blackgrass: 50
[4]; [27]
  Plant response rating, Green foxtail: 0
[4]
  Green foxtail plant response rating (0 to 100 scale): 10
[4]; [14]
  Plant response rating, Green foxtail: 20
[5]; [16]
  Velvetleaf plant response rating: 0
[5]; [28]
  Velvetleaf plant response rating: 0
[5]; [25]
  Plant response rating, Velvetleaf: 0
[5]; [24]
  Velvetleaf plant response rating: 0
[5]; [26]
  Velvetleaf plant response rating: 0
[5]; [29]
  Velvetleaf plant response rating: 0
[5]; Rate 250 g/ha, Postemergence
  Plant response rating (0 to 10; 0 is no effect, 10 is complete control), Velvetleaf: 1
[6]; [16]
  Wild oats plant response rating: 0
[6]; [28]
  Wild oats plant response rating: 5
[6]; [25]
  Plant response rating, Wild oats: 5
[6]; [24]
  Wild oats plant response rating: 0
[6]; [26]
  Wild oats plant response rating: 0
[6]; [29]
  Wild oats plant response rating: 4
[6]; Rate 250 g/ha, Postemergence
  Plant response rating (0 to 10; 0 is no effect, 10 is complete control), Wild oats: 0
[7]; [16]
  Bedstraw plant response rating: 0
[7]; [28]
  Bedstraw plant response rating: 0
[7]; [25]
  Plant response rating, Bedstraw: 10
[7]; [24]
  Bedstraw plant response rating: 4
[7]; [26]
  Bedstraw plant response rating: 7
[7]; [29]
  Bedstraw plant response rating: 0
[7]; [21]
  Bedstraw plant response rating: 8
[8]
  I. Ryegrass plant response rating (0 to 100 scale): 0
[8]; Rate 500 g/ha
  Plant response rating, I. Ryegrass: 10
[9]; [16]
  Morningglory plant response rating: 0
[9]; [28]
  Morningglory plant response rating: 0
[9]; [25]
  Plant response rating, Morningglory: 0
[9]; [24]
  Morningglory plant response rating: 4
[9]; [26]
  Morningglory plant response rating: 6
[9]; [29]
  Morningglory plant response rating: 0
[9]; Rate 250 g/ha, Postemergence
  Plant response rating (0 to 10; 0 is no effect, 10 is complete control), Morningglory: 6
[9]; [21]
  Morningglory plant response rating: 6
[10]; [27]
  Plant response rating, Barley (winter): 10
[10]
  Barley (winter) plant response rating (0 to 100 scale): 20
[10]; [14]
  Plant response rating, Barley (winter): 10
[11]; [27]
  Plant response rating, Wild oat: 20
[11]; [14]
  Plant response rating, Wild oat: 40

Source: patent US6737383B1, “Herbicidal oxadiazolidines” (priority 1999, dated 2004)
